Where a chain is given by its changes, count along the chain named.
How the values were obtained:
[1] = target: T1, Escherichia coli biotin synthase (BioB), His6-BioB (Escherichia coli, UniProt P12996, N153S); test: […] kDa centrifugal filtration binding assay, HPLC
T1 sequence (P12996 1-346 N153S): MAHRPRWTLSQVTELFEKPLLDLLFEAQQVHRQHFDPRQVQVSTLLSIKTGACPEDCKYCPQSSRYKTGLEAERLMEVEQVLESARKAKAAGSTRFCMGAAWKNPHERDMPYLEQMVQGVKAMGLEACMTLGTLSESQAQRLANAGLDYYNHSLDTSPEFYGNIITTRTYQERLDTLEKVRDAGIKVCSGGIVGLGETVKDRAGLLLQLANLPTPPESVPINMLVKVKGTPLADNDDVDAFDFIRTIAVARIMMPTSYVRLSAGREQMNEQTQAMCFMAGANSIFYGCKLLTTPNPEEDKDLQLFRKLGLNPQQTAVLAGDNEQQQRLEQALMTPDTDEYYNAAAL

[2] = target: T2, Escherichia coli biotin synthase (BioB), His6-BioB (Escherichia coli, UniProt P12996); test: […] kDa centrifugal filtration binding assay, HPLC
T2 sequence (P12996 1-346): T1 sequence (P12996 1-346 N153S) with S153N

[3] = target: T3, Escherichia coli biotin synthase (BioB), His6-BioB (Escherichia coli, UniProt P12996, N153Q); test: […] kDa centrifugal filtration binding assay, HPLC
T3 sequence (P12996 1-346 N153Q): T1 sequence (P12996 1-346 N153S) with S153Q

[4] = target: T2, Escherichia coli biotin synthase (BioB), His6-BioB; test: […] kDa centrifugal filtration of assay mixture, HPLC; format: binding; conditions: 50 μM enzyme, intermediate formed in situ, after 2 h assay, anaerobic

| Compound | Kd [1] [µM] | Kd [2] [µM] | Kd [3] [µM] | % bound to protein [4] |
| --- | --- | --- | --- | --- |
| C[C@@H]1NC(=O)N[C@@H]1CCCCCC(=O)O [DTB] | 11 ± 3 | 0.5 ± 1 | 110 ± 30 | – |
| C[S+](CC[C@H](N)C(=O)O)C[C@H]1O[C@@H](n2cnc3c(N)ncnc32)[C@H](O)[C@@H]1O (stereo partly shown) [AdoMet] | 3 ± 1 | 1 ± 0.5 | 530 ± 180 | – |
| O=C(O)CCCCC[C@H]1NC(=O)N[C@H]1CS [9-MDTB] | – | – | – | ~ 50% |
